Experimental data from PubChem BioAssay AID330 (DTP/NCI, 2004).
Where “and” joins values, the source holds several entries; their conditions need not be identical. Equal values may be shown once. Toxic doses and inconclusive results are not listed.

Test system: P388 leukemia ip, CD2F1 mice, survival T/C
Assay: NCI In Vivo Anticancer Drug Screen. Data for tumor model P388 Leukemia (intraperitoneal) in CD2F1 (CDF1) mice
Conditions: endpoint: median survival time, higher = longer survival
Method in brief: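 Mice carrying the transplanted tumor received test compound or vehicle. Survival was recorded in each group, and the value is the treated-group measurement divided by that of the vehicle-treated control group.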

[1] = dose: 50.0 mg/kg/injection, schedule: Q01DX005 (ip), vehicle: saline with Tween-80
[2] = dose: 100.0 mg/kg/injection, schedule: Q01DX005 (ip), vehicle: saline with Tween-80
[3] = dose: 50.0 mg/kg/injection, schedule: Q01DX009 (ip), vehicle: Klucel (hydroxypropylcellulose) (HPC)
[4] = dose: 100.0 mg/kg/injection, schedule: Q01DX009 (ip), vehicle: Klucel (hydroxypropylcellulose) (HPC)
[5] = dose: 200.0 mg/kg/injection, schedule: Q01DX005 (ip), vehicle: saline with Tween-80
[6] = dose: 50.0 mg/kg/injection, schedule: Q01DX009 (ip), vehicle: saline
[7] = dose: 100.0 mg/kg/injection, schedule: Q01DX009 (ip), vehicle: saline
[8] = dose: 200.0 mg/kg/injection, schedule: Q01DX009 (ip), vehicle: saline
[9] = dose: 400.0 mg/kg/injection, schedule: Q01DX009 (ip), vehicle: saline
[10] = dose: 50.0 mg/kg/injection, schedule: Q01DX009 (ip), vehicle: saline with Tween-80
[11] = dose: 100.0 mg/kg/injection, schedule: Q01DX009 (ip), vehicle: saline with Tween-80
[12] = dose: 200.0 mg/kg/injection, schedule: Q01DX009 (ip), vehicle: saline with Tween-80
[13] = dose: 50.0 mg/kg/injection, schedule: Q04DX003 (ip), vehicle: Klucel (hydroxypropylcellulose) (HPC)

Cc1ccc2c(C)c3c(ccc4ccccc43)c[n+]2c1
T/C (dose: 2.5 mg/kg/injection, schedule: Q04DX003 (ip), vehicle: other): 103 % of control
T/C (dose: 5.0 mg/kg/injection, schedule: Q04DX003 (ip), vehicle: other): 101 % of control
T/C (dose: 10.0 mg/kg/injection, schedule: Q04DX003 (ip), vehicle: other): 100 % of control
T/C (dose: 20.0 mg/kg/injection, schedule: Q04DX003 (ip), vehicle: other): 104 % of control

CN(C)c1cccc(NC(=O)CC#N)c1
T/C [1]: 93 % of control
T/C [2]: 93 % of control

CNCCN=c1ccc2c3c1c(O)c1c(O)ccc(=O)c1c3[nH]n2CCNCCO
T/C (dose: 1.56 mg/kg/injection, schedule: Q04DX002 (ip), vehicle: water): 167 % of control and 186 % of control
T/C (dose: 3.12 mg/kg/injection, schedule: Q04DX002 (ip), vehicle: water): 177 % of control and 268 % of control
T/C (dose: 6.25 mg/kg/injection, schedule: Q04DX002 (ip), vehicle: water): 275 % of control and 277 % of control
T/C (dose: 12.5 mg/kg/injection, schedule: Q04DX002 (ip), vehicle: water): 275 % of control and 277 % of control
T/C (dose: 25.0 mg/kg/injection, schedule: Q04DX002 (ip), vehicle: water): 90 % of control

CC1=NN(c2cccc(C(F)(F)F)c2)C(=O)C1
T/C (dose: 25.0 mg/kg/injection, schedule: Q01DX009 (ip), vehicle: Klucel (hydroxypropylcellulose) (HPC)): 100 % of control
T/C [3]: 106 % of control
T/C [4]: 102 % of control

O=C1CCC(N2C(=O)C3CCCCC3C2=O)C(=O)O1 (configuration not stated)
T/C [3]: 94 % of control
T/C [4]: 108 % of control
T/C (dose: 200.0 mg/kg/injection, schedule: Q01DX009 (ip), vehicle: Klucel (hydroxypropylcellulose) (HPC)): 99 % of control

COc1cccc2c1C(=O)c1c(O)c3c(c(O)c1C2=O)CC(O)(/C(C)=N/NC(=O)CCCCC(=O)N/N=C(\C)C1(O)Cc2c(O)c4c(c(O)c2C(OC2CC(N)C(O)C(C)O2)C1)C(=O)c1c(OC)cccc1C4=O)CC3OC1CC(N)C(O)C(C)O1 (configuration not stated)
T/C (dose: 0.2 mg/kg/injection, schedule: Q01DX009 (ip), vehicle: water): 118 % of control
T/C (dose: 0.78 mg/kg/injection, schedule: Q01DX009 (ip), vehicle: water): 154 % of control
T/C (dose: 1.56 mg/kg/injection, schedule: Q01DX009 (ip), vehicle: water): 157 % of control and 172 % of control
T/C (dose: 3.13 mg/kg/injection, schedule: Q01DX009 (ip), vehicle: water): 186 % of control and 189 % of control
T/C (dose: 6.25 mg/kg/injection, schedule: Q01DX009 (ip), vehicle: water): 281 % of control and 289 % of control
T/C (dose: 12.5 mg/kg/injection, schedule: Q01DX009 (ip), vehicle: water): 100 % of control and 102 % of control

CN(C)S(=O)(=O)CCNC(=O)N(CCCl)N=O
T/C (dose: 2.5 mg/kg/injection, schedule: Q01DX005 (ip), vehicle: saline): 100 % of control
T/C (dose: 5.0 mg/kg/injection, schedule: Q01DX005 (ip), vehicle: saline): 104 % of control
T/C (dose: 10.0 mg/kg/injection, schedule: Q01DX005 (ip), vehicle: saline): 119 % of control and 218 % of control
T/C (dose: 20.0 mg/kg/injection, schedule: Q01DX005 (ip), vehicle: saline): 203 % of control and 250 % of control

CC1=CC2(C)C3C=C(C)C(C2C(=O)C1=O)C(C)(O)C3=O (configuration not stated)
T/C [1]: 97 % of control
T/C [2]: 106 % of control
T/C [5]: 106 % of control

CC(=O)Oc1cccnc1
T/C (dose: 50.0 mg/kg/injection, schedule: Q01DX006 (ip), vehicle: saline): 106 % of control
T/C [6]: 100 % of control
T/C (dose: 100.0 mg/kg/injection, schedule: Q01DX006 (ip), vehicle: saline): 100 % of control
T/C [7]: 96 % of control
T/C (dose: 200.0 mg/kg/injection, schedule: Q01DX006 (ip), vehicle: saline): 100 % of control
T/C [8]: 95 % of control
T/C (dose: 400.0 mg/kg/injection, schedule: Q01DX006 (ip), vehicle: saline): 100 % of control
T/C [9]: 95 % of control
T/C (dose: 600.0 mg/kg/injection, schedule: Q01DX006 (ip), vehicle: saline): 100 % of control
T/C (dose: 600.0 mg/kg/injection, schedule: Q01DX009 (ip), vehicle: saline): 94 % of control
T/C (dose: 800.0 mg/kg/injection, schedule: Q01DX006 (ip), vehicle: saline): 99 % of control
T/C (dose: 800.0 mg/kg/injection, schedule: Q01DX009 (ip), vehicle: saline): 95 % of control

CC(C)=CCC/C(C)=C\C1OC(C)C(C)O1 (configuration not stated)
T/C [1]: 104 % of control
T/C [2]: 100 % of control
T/C [5]: 107 % of control

NN1C(=O)CC(c2cccc(Cl)c2)C1=O (configuration not stated)
T/C (dose: 60.0 mg/kg/injection, schedule: Q01DX005 (ip), vehicle: saline with Tween-80): 92 % of control
T/C (dose: 120.0 mg/kg/injection, schedule: Q01DX005 (ip), vehicle: saline with Tween-80): 92 % of control
T/C (dose: 240.0 mg/kg/injection, schedule: Q01DX005 (ip), vehicle: saline with Tween-80): 92 % of control

CC1(C)OP(=O)(O)C=C1[Se]c1ccccc1
T/C (dose: 50.0 mg/kg/injection, schedule: Q01DX005 (ip), vehicle: Klucel (hydroxypropylcellulose) (HPC)): 100 % of control
T/C (dose: 100.0 mg/kg/injection, schedule: Q01DX005 (ip), vehicle: Klucel (hydroxypropylcellulose) (HPC)): 102 % of control
T/C (dose: 200.0 mg/kg/injection, schedule: Q01DX005 (ip), vehicle: Klucel (hydroxypropylcellulose) (HPC)): 94 % of control

OC1(c2ccccc2)c2ccccc2NC2=NCCN21 (configuration not stated)
T/C (dose: 25.0 mg/kg/injection, schedule: Q01DX005 (ip), vehicle: saline with Tween-80): 105 % of control
T/C [1]: 96 % of control
T/C [2]: 104 % of control
T/C [5]: 97 % of control

COC(=O)c1ccoc1
T/C [10]: 96 % of control
T/C [6]: 116 % of control
T/C [11]: 108 % of control
T/C [12]: 123 % of control
T/C [8]: 113 % of control
T/C [9]: 107 % of control

Cc1ccc(C)c(NC(=O)Oc2cc(C)c(Cl)c(C)c2)c1
T/C [10]: 101 % of control
T/C [11]: 105 % of control
T/C [12]: 98 % of control

CC1=NNB(O)c2sccc21
T/C [10]: 90 % of control
T/C [11]: 100 % of control
T/C [12]: 91 % of control

Cc1cc2oc3c(ccc(=O)n3C)c(=O)c2c(C)c1Cl
T/C [1]: 104 % of control
T/C [2]: 113 % of control
T/C [5]: 88 % of control

Cc1cc(C)cc([C@H](C)N=Cc2cc(Br)ccc2O)c1
T/C (dose: 100.0 mg/kg/injection, schedule: Q04DX002 (ip), vehicle: saline with Tween-80): 100 % of control
T/C (dose: 200.0 mg/kg/injection, schedule: Q04DX002 (ip), vehicle: saline with Tween-80): 100 % of control
T/C (dose: 400.0 mg/kg/injection, schedule: Q04DX002 (ip), vehicle: saline with Tween-80): 108 % of control

COc1cccc([N+]([O-])=NC#N)c1
T/C (dose: 12.5 mg/kg/injection, schedule: Q04DX003 (ip), vehicle: Klucel (hydroxypropylcellulose) (HPC)): 105 % of control
T/C (dose: 25.0 mg/kg/injection, schedule: Q04DX003 (ip), vehicle: Klucel (hydroxypropylcellulose) (HPC)): 115 % of control
T/C [13]: 107 % of control and 90 % of control

C1CC[N-]CC1.C1CC[N-]CC1.C1CC[N-]CC1.[Cr+6].[N-]=C=S.[N-]=C=S.[N-]=C=S
T/C (dose: 100.0 mg/kg/injection, schedule: Q04DX002 (ip), vehicle: acetone): 97 % of control
T/C (dose: 100.0 mg/kg/injection, schedule: Q04DX002 (ip), vehicle: distilled water + alcohol): 99 % of control
T/C (dose: 200.0 mg/kg/injection, schedule: Q04DX002 (ip), vehicle: acetone): 97 % of control

NS(=O)(=O)Cc1noc2ccc(F)cc12
T/C [1]: 93 % of control
T/C [2]: 104 % of control
T/C [5]: 103 % of control

O=C1CCCC2=C1C(c1ccccc1)/C(=N/O)O2 (configuration not stated)
T/C [13]: 97 % of control
T/C (dose: 100.0 mg/kg/injection, schedule: Q04DX003 (ip), vehicle: Klucel (hydroxypropylcellulose) (HPC)): 101 % of control
T/C (dose: 200.0 mg/kg/injection, schedule: Q04DX003 (ip), vehicle: Klucel (hydroxypropylcellulose) (HPC)): 100 % of control and 90 % of control

CC1CC(N)=NC1C(=O)NCCC#N (configuration not stated)
T/C (dose: 12.5 mg/kg/injection, schedule: Q01DX009 (ip), vehicle: saline): 97 % of control
T/C (dose: 25.0 mg/kg/injection, schedule: Q01DX009 (ip), vehicle: saline): 101 % of control
T/C [6]: 98 % of control
T/C [7]: 90 % of control

C(=C\c1cc2ccc(C3=NCCN3)cc2[nH]1)/c1cc2ccc(C3=NCCN3)cc2[nH]1
T/C (dose: 100.0 mg/kg/injection, schedule: Q04DX003 (ip), vehicle: saline): 162 % of control
T/C (dose: 200.0 mg/kg/injection, schedule: Q04DX003 (ip), vehicle: saline): 162 % of control
T/C (dose: 400.0 mg/kg/injection, schedule: Q04DX003 (ip), vehicle: saline): 271 % of control
